Laboratory results taken from PubChem BioAssay (NCI).
Several values for one entry are separate records, joined by “and”; a condition that tells them apart may be missing. Identical values can stand only once.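 Assay format: 96-well plates, 48-hour exposure. GI50: concentration for 50% inhibition of growth. Definition used: TGI = concentration required for complete inhibition of growth.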

Key:
Assay in all cases: NCI tumour cell line growth inhibition, 48 h
DU-145 prostate = test system: DU-145 prostate
HT29 colon = test system: HT29 colon
HCT-15 colon = test system: HCT-15 colon
HOP-62 NSCLC = test system: HOP-62 NSCLC
NCI/ADR-RES ovarian = test system: NCI/ADR-RES ovarian
COLO 205 colon = test system: COLO 205 colon
RXF 393 renal = test system: RXF 393 renal
PC-3 prostate = test system: PC-3 prostate
M14 melanoma = test system: M14 melanoma
MALME-3M melanoma = test system: MALME-3M melanoma
CCRF-CEM leukemia = test system: CCRF-CEM leukemia
HOP-92 NSCLC = test system: HOP-92 NSCLC
CAKI-1 renal = test system: CAKI-1 renal
UO-31 renal = test system: UO-31 renal
ACHN renal = test system: ACHN renal
OVCAR-4 ovarian = test system: OVCAR-4 ovarian
SK-MEL-2 melanoma = test system: SK-MEL-2 melanoma
OVCAR-3 ovarian = test system: OVCAR-3 ovarian
IGROV1 ovarian = test system: IGROV1 ovarian
OVCAR-8 ovarian = test system: OVCAR-8 ovarian
SF-539 CNS = test system: SF-539 CNS
SK-MEL-5 melanoma = test system: SK-MEL-5 melanoma
KM12 colon = test system: KM12 colon
BT-549 breast = test system: BT-549 breast
K-562 leukemia = test system: K-562 leukemia
SF-268 CNS = test system: SF-268 CNS
MOLT-4 leukemia = test system: MOLT-4 leukemia
T-47D breast = test system: T-47D breast
SR leukemia = test system: SR leukemia
A498 renal = test system: A498 renal
UACC-62 melanoma = test system: UACC-62 melanoma
TK-10 renal = test system: TK-10 renal
HL-60(TB) leukemia = test system: HL-60(TB) leukemia
U251 CNS = test system: U251 CNS
HCC-2998 colon = test system: HCC-2998 colon
SNB-19 CNS = test system: SNB-19 CNS
SK-MEL-28 melanoma = test system: SK-MEL-28 melanoma
SN12C renal = test system: SN12C renal
NCI-H522 lung = test system: NCI-H522 lung
MDA-MB-231 breast = test system: MDA-MB-231 breast
UACC-257 melanoma = test system: UACC-257 melanoma
786-0 renal = test system: 786-0 renal
SW-620 colon = test system: SW-620 colon
NCI-H23 lung = test system: NCI-H23 lung
SK-OV-3 ovarian = test system: SK-OV-3 ovarian
SF-295 CNS = test system: SF-295 CNS
EKVX NSCLC = test system: EKVX NSCLC
HS 578T breast = test system: HS 578T breast
A549 NSCLC = test system: A549 NSCLC
MDA-MB-435 = test system: MDA-MB-435
NCI-H226 lung = test system: NCI-H226 lung
HCT-116 colon = test system: HCT-116 colon
MCF7 breast = test system: MCF7 breast
SNB-75 CNS = test system: SNB-75 CNS
LOX IMVI melanoma = test system: LOX IMVI melanoma
NCI-H460 lung = test system: NCI-H460 lung
RPMI-8226 leukemia = test system: RPMI-8226 leukemia
OVCAR-5 ovarian = test system: OVCAR-5 ovarian

COc1ccc(-c2cc3c(C)nc(N)nc3n(C3CCC(OCCO)CC3)c2=O)cn1 (stereo not given)
GI50 (DU-145 prostate): 153 nM and 106 nM
TGI (DU-145 prostate): > 10000 nM and 8280 nM
GI50 (HT29 colon): 78.1 nM and 80.9 nM
TGI (HT29 colon): 1830 nM and 747 nM
GI50 (HCT-15 colon): 106 nM and 97.4 nM
TGI (HCT-15 colon): > 6210 nM and 5110 nM
GI50 (HOP-62 NSCLC): 99.7 nM and 113 nM
TGI (HOP-62 NSCLC): 2110 nM and 1930 nM
GI50 (NCI/ADR-RES ovarian): 141 nM and 139 nM
TGI (NCI/ADR-RES ovarian): 2060 nM and 1650 nM
GI50 (COLO 205 colon): 88.2 nM and 137 nM
TGI (COLO 205 colon): 874 nM and 1140 nM
GI50 (RXF 393 renal): 40.3 nM and 46.7 nM
TGI (RXF 393 renal): 289 nM and 309 nM
GI50 (PC-3 prostate): 68.7 nM and 22.2 nM
TGI (PC-3 prostate): > 2730 nM and 299 nM
GI50 (M14 melanoma): 99 nM and 68.6 nM
TGI (M14 melanoma): 2690 nM and 1050 nM
GI50 (MALME-3M melanoma): 35 nM and 19.5 nM
TGI (MALME-3M melanoma): 263 nM and 134 nM
GI50 (CCRF-CEM leukemia): 134 nM and 80.3 nM
TGI (CCRF-CEM leukemia): > 23800 nM
GI50 (HOP-92 NSCLC): 36.2 nM
GI50 (CAKI-1 renal): 37.9 nM and 86.6 nM
TGI (CAKI-1 renal): 380 nM and 575 nM
GI50 (UO-31 renal): 26.5 nM and 16.9 nM
TGI (UO-31 renal): 378 nM and 492 nM
GI50 (ACHN renal): 97.1 nM and 97.3 nM
TGI (ACHN renal): > 6330 nM
GI50 (OVCAR-4 ovarian): 140 nM and 114 nM
TGI (OVCAR-4 ovarian): 2060 nM and 841 nM
GI50 (SK-MEL-2 melanoma): 124 nM and 67.4 nM
TGI (SK-MEL-2 melanoma): 549 nM and 392 nM
GI50 (OVCAR-3 ovarian): 61.4 nM and 39.5 nM
TGI (OVCAR-3 ovarian): 486 nM and 427 nM
GI50 (IGROV1 ovarian): 21 nM and 19.9 nM
TGI (IGROV1 ovarian): 98.3 nM and 92 nM
GI50 (OVCAR-8 ovarian): 141 nM and 128 nM
TGI (OVCAR-8 ovarian): 2360 nM and 1410 nM
GI50 (SF-539 CNS): 131 nM and 126 nM
TGI (SF-539 CNS): 552 nM and 461 nM
GI50 (SK-MEL-5 melanoma): 144 nM and 103 nM
TGI (SK-MEL-5 melanoma): 543 nM and 650 nM
GI50 (KM12 colon): 231 nM and 209 nM
TGI (KM12 colon): 3900 nM and 2920 nM
GI50 (BT-549 breast): 62.2 nM and 31.7 nM
TGI (BT-549 breast): 666 nM and 359 nM
GI50 (K-562 leukemia): 593 nM and 360 nM
TGI (K-562 leukemia): > 100000 nM
GI50 (SF-268 CNS): 78.4 nM and 77.9 nM
TGI (SF-268 CNS): > 4350 nM and 5490 nM
GI50 (MOLT-4 leukemia): 67.7 nM and 62.6 nM
TGI (MOLT-4 leukemia): > 10000 nM and 7350 nM
GI50 (T-47D breast): 13.1 nM and 21.1 nM
TGI (T-47D breast): 73.5 nM and 147 nM
GI50 (SR leukemia): 257 nM and 80.5 nM
TGI (SR leukemia): > 10000 nM and 1440 nM
GI50 (A498 renal): 21.1 nM
TGI (A498 renal): 92.5 nM
GI50 (UACC-62 melanoma): 20 nM and 46 nM
TGI (UACC-62 melanoma): 165 nM and 365 nM
GI50 (TK-10 renal): 26 nM and 26.4 nM
TGI (TK-10 renal): 235 nM and 197 nM
GI50 (HL-60(TB) leukemia): 34.5 nM and 94.1 nM
TGI (HL-60(TB) leukemia): > 10000 nM and 6380 nM
GI50 (U251 CNS): 181 nM and 162 nM
TGI (U251 CNS): 2750 nM and 1900 nM
GI50 (HCC-2998 colon): 94.1 nM and 130 nM
TGI (HCC-2998 colon): 1800 nM and 1710 nM
GI50 (SNB-19 CNS): 318 nM and 280 nM
TGI (SNB-19 CNS): 2840 nM and 3430 nM
GI50 (SK-MEL-28 melanoma): 51.7 nM and 74 nM
TGI (SK-MEL-28 melanoma): 425 nM and 604 nM
GI50 (SN12C renal): 79 nM and 75.8 nM
TGI (SN12C renal): > 100000 nM
GI50 (NCI-H522 lung): 52 nM and 33.7 nM
TGI (NCI-H522 lung): 800 nM and 386 nM
GI50 (MDA-MB-231 breast): 96.7 nM and 144 nM
TGI (MDA-MB-231 breast): 792 nM and 1130 nM
GI50 (UACC-257 melanoma): 58.6 nM and 42.3 nM
TGI (UACC-257 melanoma): 414 nM and 336 nM
GI50 (786-0 renal): 69.4 nM and 60.5 nM
TGI (786-0 renal): 614 nM and 442 nM
GI50 (SW-620 colon): 181 nM and 162 nM
TGI (SW-620 colon): > 10000 nM
GI50 (NCI-H23 lung): 156 nM and 97.7 nM
TGI (NCI-H23 lung): > 6910 nM
GI50 (SK-OV-3 ovarian): 44 nM and 81.4 nM
TGI (SK-OV-3 ovarian): 291 nM and 527 nM
GI50 (SF-295 CNS): 50.1 nM and 40.1 nM
TGI (SF-295 CNS): 326 nM and 275 nM
GI50 (EKVX NSCLC): 97.1 nM and 46.5 nM
TGI (EKVX NSCLC): 700 nM and 396 nM
GI50 (HS 578T breast): 34.5 nM and 15 nM
TGI (HS 578T breast): 272 nM and 113 nM
GI50 (A549 NSCLC): 123 nM and 109 nM
TGI (A549 NSCLC): 959 nM and 489 nM
GI50 (MDA-MB-435): 98.5 nM and 84.2 nM
TGI (MDA-MB-435): 941 nM and 564 nM
GI50 (NCI-H226 lung): 74.2 nM and 105 nM
TGI (NCI-H226 lung): > 2190 nM and 946 nM
GI50 (HCT-116 colon): 243 nM and 222 nM
TGI (HCT-116 colon): > 10000 nM and 18900 nM
GI50 (MCF7 breast): 26.6 nM and 22.8 nM
TGI (MCF7 breast): > 10000 nM and 1030 nM
GI50 (SNB-75 CNS): 15.1 nM and < 11.7 nM
TGI (SNB-75 CNS): 137 nM and 177 nM
GI50 (LOX IMVI melanoma): 111 nM and 88.2 nM
TGI (LOX IMVI melanoma): 1120 nM and 943 nM
GI50 (NCI-H460 lung): 62.9 nM and 47.5 nM
TGI (NCI-H460 lung): > 35300 nM
GI50 (RPMI-8226 leukemia): 157 nM and 61.2 nM
TGI (RPMI-8226 leukemia): > 3740 nM and 3270 nM
GI50 (OVCAR-5 ovarian): 73.4 nM and 48.9 nM
TGI (OVCAR-5 ovarian): 1950 nM and 1020 nM
